From patent US7169789B2 (Kirin Beer Kabushiki Kaisha, priority 1999, dated 2007)
Read-outs that look alike come from different tables or passages of the source.

What was measured:
[1] = test system: A375 human melanoma cells; assay: Karyomorphosis test; assay type: cell-based; conditions: test compound 10 μM and 1 μM, 48 hr, nuclei stained with propidium iodide
Method: A375 human melanoma cells (2×10^4) (obtained from Japanese Foundation for Cancer Research) were incolulated on a culture slide (manufactured by Falcon) and were cultured at 37° C. After the elapse of 5 hr from the initiation of the cultivation, the test compound was added to 10 μM and 1 μM, and the cultivation was continued for additional 48 hr. After the fixation of cells, 50 μg/ml propidium iodide solution containing ribonuclease (200 μg/ml) was added to stain nuclei. The stained nuclei were observed under a fluorescent microscope to analyze the nuclei for abnormality of karyomorphosis.

[2] = test system: activation of MAPK within vascular endothelial cells induced by VEGF stimulation; assay: Inhibitory activity against activation of MAPK within vascular endothelial cells induced by VEGF stimulation; assay type: cell-based; conditions: human funicular venous vascular endothelial cells, VEGF 50 ng/ml, phosphorylated MAPK by immunoblotting
In short: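 Serum-starved (0.5% FCS, 24 h) human umbilical vein endothelial cells pretreated with compound 1 h at 37 °C, then stimulated with 50 ng/ml recombinant human VEGF for 8 min.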

Human glioma cells GL07 = assay: Antitumor effect on human glioma cells (GL07) transplanted into nude mice; assay type: in vivo; conditions: 20 mg/kg once a day for 9 days; for inhibition in vivo at 20 mg/kg: Mus musculus, Glioma cell, 216 h, read-out: TGIR, % (tumor growth inhibition rate)
In short: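 GL07 xenografts in nude mice, grouped (n=4) at ~100 mm^3 tumor volume. Test compound 20 mg/kg p.o. or i.p. once daily for 9 days; vehicle controls. TGIR = (1−Tx/Cx)×100 from tumor volumes normalized to day-of-start volume = 1.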

Compound | Change in morphosis [1] | IC50 [2] | TGIR, % (tumor growth inhibition rate) (Human glioma cells GL07; GL07, intraperitoneal) | IC50 ([2]; Endothelial cell) | inhibition in vivo at 20 mg/kg (Human glioma cells GL07; GL07, oral) | inhibition in vivo at 20 mg/kg (Human glioma cells GL07; ip, GL07, intraperitoneal)
COc1cc2nccc(Oc3ccc(NC(=O)Nc4ccc(F)cc4C)c(C)c3C)c2cc1OC [Example 25, N-{4-[(6,7-Dimethoxy-4-guinolyl)oxy]-2,3-dimethylphenyl}-N′-(4-fluoro-2-methylphenyl)urea] | (−) (the change in karyomorphosis of cells did not take place at 10 μM) | 3.9 nM | 68% | – | – | –
COc1cc2nccc(Oc3ccc(NC(=O)Nc4ccc(Cl)cn4)c(C)c3C)c2cc1OC [Example 28, N-(5-Chloro-2-pyridyl)-N′-{4-[(6,7-dimethoxy-4-guinolyl)oxy]-2,3-dimethylphenyl}urea] | (−) (the change in karyomorphosis of cells did not take place at 10 μM) | 4 nM | 84% | – | – | –
COc1cc2nccc(Oc3ccc(NC(=O)Nc4ccc(Br)cn4)c(C)c3C)c2cc1OC [Example 29, N-(5-Bromo-2-pyridyl)-N′-{4-[(6,7-dimethoxy-4-quinolyl)oxy]-2,3-dimethylphenyl}urea] | (−) (the change in karyomorphosis of cells did not take place at 10 μM) | – | – | 4.4 nM | 64% | –
COc1cc2nccc(Oc3cc(C)c(NC(=O)Nc4ccc(F)cc4F)cc3C)c2cc1OC [Example 37, N-(2,4-Difluorophenyl)-N′-{4-[(6,7-dimethoxy-4-quinolyl)oxy]-2,5-dimethylphenyl}urea] | (−) (the change in karyomorphosis of cells did not take place at 10 μM) | – | – | 2.3 nM | – | 70%
COc1cc2nccc(Oc3ccc(NC(=O)Nc4ccc(F)cc4F)c([N+](=O)[O-])c3)c2cc1OC [Example 48, N-(2,4-Difluorophenyl)-N′-{4-[(6,7-dimethoxy-4-quinolyl)oxy]-2-nitrophenyl}urea] | (−) (the change in karyomorphosis of cells did not take place at 10 μM) | – | – | 0.5 nM | – | 90%
CCCNC(=O)Nc1ccc(Oc2ncnc3cc(OC)c(OC)cc23)cc1Cl [Example 62, N-{2-chloro-4-[(6,7-dimethoxy-4-quinazolinyl)-oxy]phenyl}-N′-propylurea] | (−) (the change in karyomorphosis of cells did not take place at 10 μM) | – | – | 16 nM | 78% | –
